Experimental data as given in PubChem BioAssay (NCI).
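Test compounds were applied to cells in 96-well plates for 48 hours at 5 doses. GI50 = concentration required for 50% inhibition of growth. The concentration for full growth arrest is given as TGI.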

Experiments:
Assay in all cases: NCI anticancer screen, dose series, 48 h
[1] = system: 786-0 renal
[2] = system: A498 renal
[3] = system: A549 NSCLC
[4] = system: ACHN renal
[5] = system: BT-549 breast
[6] = system: CAKI-1 renal
[7] = system: CCRF-CEM leukemia
[8] = system: COLO 205 colon
[9] = system: DU-145 prostate
[10] = system: EKVX NSCLC
[11] = system: HCC-2998 colon
[12] = system: HCT-116 colon
[13] = system: HCT-15 colon
[14] = system: HL-60(TB) leukemia
[15] = system: HOP-62 NSCLC
[16] = system: HOP-92 NSCLC
[17] = system: HS 578T breast
[18] = system: HT29 colon
[19] = system: IGROV1 ovarian
[20] = system: K-562 leukemia
[21] = system: KM12 colon
[22] = system: LOX IMVI melanoma
[23] = system: M14 melanoma
[24] = system: MALME-3M melanoma
[25] = system: MCF7 breast
[26] = system: MDA-MB-231 breast
[27] = system: MDA-MB-435
[28] = system: MOLT-4 leukemia
[29] = system: NCI-H226 lung
[30] = system: NCI-H23 lung
[31] = system: NCI-H460 lung
[32] = system: NCI-H522 lung
[33] = system: NCI/ADR-RES ovarian
[34] = system: OVCAR-3 ovarian
[35] = system: OVCAR-4 ovarian
[36] = system: OVCAR-5 ovarian
[37] = system: OVCAR-8 ovarian
[38] = system: PC-3 prostate
[39] = system: RPMI-8226 leukemia
[40] = system: RXF 393 renal
[41] = system: SF-268 CNS
[42] = system: SF-295 CNS
[43] = system: SF-539 CNS
[44] = system: SK-MEL-2 melanoma
[45] = system: SK-MEL-28 melanoma
[46] = system: SK-MEL-5 melanoma
[47] = system: SK-OV-3 ovarian
[48] = system: SN12C renal
[49] = system: SNB-19 CNS
[50] = system: SNB-75 CNS
[51] = system: SR leukemia
[52] = system: SW-620 colon
[53] = system: T-47D breast
[54] = system: TK-10 renal
[55] = system: U251 CNS
[56] = system: UACC-257 melanoma
[57] = system: UACC-62 melanoma
[58] = system: UO-31 renal

In the case of `CC1(C)CC[C@]2(C(=O)O)CC[C@]3(C)C(=CC[C@@H]4[C@@]5(C)C/C(=C/c6cccnc6)[C@H](O)C(C)(C)[C@@H]5CC[C@]43C)[C@@H]2C1`, the GI50 [1] is reported as 11.2 µM, the TGI [1] is reported as > 100 µM and the GI50 [2] is reported as > 100 µM. For the same molecule, the TGI [2] was > 100 µM, the GI50 [3] was 3.65 µM and the TGI [3] was > 100 µM. For the same molecule, the GI50 [4] was 6.11 µM, the TGI [4] was > 100 µM and the GI50 [5] was 12.4 µM. For the same molecule, the TGI [5] was > 100 µM, the GI50 [6] was 10.2 µM and the TGI [6] was > 100 µM. The GI50 [7] was 2.88 µM, the TGI [7] was 18.5 µM and the GI50 [8] was 9.71 µM. The TGI [8] was 29.6 µM, the GI50 [9] was 10.7 µM and the TGI [9] was > 100 µM. The GI50 [10] was 6.02 µM, the TGI [10] was 56.6 µM and the GI50 [11] was 11.4 µM. For the same molecule, the TGI [11] was 54.4 µM, the GI50 [12] was 5.12 µM and the TGI [12] was 22.4 µM. The GI50 [13] was 3.85 µM, the TGI [13] was 25.6 µM and the GI50 [14] was 2.12 µM. For the same molecule, the TGI [14] was 5.94 µM, the GI50 [15] was 13 µM and the TGI [15] was > 100 µM. The GI50 [16] was 2.22 µM, the TGI [16] was 10.1 µM and the GI50 [17] was 21.8 µM. For the same molecule, the TGI [17] was > 100 µM, the GI50 [18] was 8.78 µM and the TGI [18] was 42.1 µM. The GI50 [19] was 5.13 µM, the TGI [19] was > 100 µM and the GI50 [20] was 3.1 µM. For the same molecule, the TGI [20] was > 100 µM, the GI50 [21] was 4.58 µM and the TGI [21] was 32.7 µM. For the same molecule, the GI50 [22] was 8.28 µM, the TGI [22] was 24.2 µM and the GI50 [23] was 16.7 µM. It also gave a TGI [23] of 51.3 µM, a GI50 [24] of 13.4 µM and a TGI [24] of 36.2 µM. The GI50 [25] was 5.25 µM, the TGI [25] was > 100 µM and the GI50 [26] was 14.9 µM. For the same molecule, the TGI [26] was 57.3 µM, the GI50 [27] was 15.2 µM and the TGI [27] was > 100 µM. For the same molecule, the GI50 [28] was 2.63 µM, the TGI [28] was 26 µM and the GI50 [29] was 8.63 µM. The TGI [29] was 63 µM, the GI50 [30] was 9.64 µM and the TGI [30] was > 100 µM. For the same molecule, the GI50 [31] was 4.14 µM, the TGI [31] was 26.4 µM and the GI50 [32] was 8.97 µM. For the same molecule, the TGI [32] was > 100 µM, the GI50 [33] was 9.82 µM and the TGI [33] was > 100 µM. For the same molecule, the GI50 [34] was 7.08 µM, the TGI [34] was 25.6 µM and the GI50 [35] was 40 µM. For the same molecule, the TGI [35] was > 100 µM, the GI50 [36] was 11.2 µM and the TGI [36] was 44 µM. For the same molecule, the GI50 [37] was 9.47 µM, the TGI [37] was > 100 µM and the GI50 [38] was 2.66 µM. It also gave a TGI [38] of 72.4 µM, a GI50 [39] of 3.02 µM and a TGI [39] of 18.8 µM. The GI50 [40] was 7.28 µM, the TGI [40] was 36.6 µM and the GI50 [41] was 8.68 µM. For the same molecule, the TGI [41] was > 100 µM, the GI50 [42] was 4.3 µM and the TGI [42] was 87.4 µM. The GI50 [43] was 5.54 µM, the TGI [43] was 24 µM and the GI50 [44] was 17 µM. The TGI [44] was 66.1 µM, the GI50 [45] was 11.1 µM and the TGI [45] was 35 µM. It also gave a GI50 [46] of 6.71 µM, a TGI [46] of 23.2 µM and a GI50 [47] of 19 µM. For the same molecule, the TGI [47] was > 100 µM, the GI50 [48] was 4.7 µM and the TGI [48] was > 100 µM. For the same molecule, the GI50 [49] was 5.55 µM, the TGI [49] was > 100 µM and the GI50 [50] was 38.6 µM. For the same molecule, the TGI [50] was > 100 µM, the GI50 [51] was 13.2 µM and the TGI [51] was > 100 µM. The GI50 [52] was 5.34 µM, the TGI [52] was > 100 µM and the GI50 [53] was 9.89 µM. The TGI [53] was > 100 µM, the GI50 [54] was 21.7 µM and the TGI [54] was > 100 µM. The GI50 [55] was 5.59 µM, the TGI [55] was 32.7 µM and the GI50 [56] was 24.9 µM. For the same molecule, the TGI [56] was 92.8 µM, the GI50 [57] was 4.72 µM and the TGI [57] was 36.4 µM. For the same molecule, the GI50 [58] was 4.64 µM and the TGI [58] was 19.2 µM.
